# Values of other authors, collected in patent US20080171083A1, “Pharmaceutical Compositions Comprising an Amphiphilic Starch” (VECTURE LIMITED, priority 2004, published 2008).
# Where a name gives a salt, the structure may show the parent alone.
# Details: class-1 high solubility, class-2 highly permeable, low solubility, class-3 low permeability, class-4 low solubility
row,SMILES,BCS class (solubility / permeability)
1,NCC1(CC(=O)O)CCCCC1 [Gabapentin],class-3
2,CC(C)NCC(O)COc1cccc2ccccc12 (stereo not shown) [propranolol hydrochloride],class-1
3,COc1ccccc1OCCNCC(O)COc1cccc2[nH]c3ccccc3c12 (stereo not shown) [Carvedilol],class-4
4,COc1ccc2c(c1)c(CC(=O)O)c(C)n2C(=O)c1ccc(Cl)cc1 [Indomethacin],class-2
